The text below walks through data of patent US6495160B2, “Biphasic multicomponent pharmaceutical dosage forms containing substances able to modify the partitioning of drugs” (Eurand International S.p.A., priority 1997, dated 2002).

The series in a line: Apparent partition coefficient (Pm) between oil and water phases. Type of series: physicochemical. The conditions noted are these: oily phase Labrafac Hydro, benzyl alcohol 1:1, 24 hours. The procedure: The water volume contained a starting concentration of active principle (C0) which was lower than the solubility of the active principle in each of the two phases. At the end of the experiment, the concentrations of active principle in the water phase (CA) were measured by cromatography (HPLC).

With `CS(=O)(=O)Nc1ccc([N+](=O)[O-])cc1Oc1ccccc1` [NIME, Nimesulide], the “Partition coefficient (Pm) of the Active Principle” value (“Partition coefficient (Pm)” for short) (NMP 0% in aqueous phase) is 1.75; the “Partition coefficient (Pm)” value (NMP 5% in aqueous phase) was determined as 36.7; the “Partition coefficient (Pm)” value (NMP 10% in aqueous phase) is 63.5; the “Partition coefficient (Pm)” value (NMP 15% in aqueous phase) worked out at 98.3; the “Partition coefficient (Pm)” value (NMP 20% in aqueous phase) is given as 29.6.
